What was measured:
[1] = Compound toxicity, ATPLite total ATP levels; assay type: cell-based; conditions: human, HepG2 cells; concentration reducing total ATP levels by 50% relative to no drug controls; ATPLite three days after compound addition
Method: Compound toxicity is evaluated by seeding cells at 15,000 cells/well and treating with compound as described above.

[2] = system: HBV; assay: HepAD38 anti-HBV assay: reduction of viral product accumulation (virion DNA qPCR, HBsAg/HBeAg ELISA); assay type: cell-based; conditions: Hepatitis B virus, 120 h; HepAD38 cells; concentration reducing viral product accumulation by 50% relative to no drug controls; harvest five days after compound addition; read-out: HepAD38 EC50
Outline: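 Tetracycline-free HepAD38 cells treated 5 days with compound (1:200 DMSO dilution), or 8 days with media and compound refreshed on d2 and d5. Virion DNA quantified by qPCR; HBsAg or HBeAg by ELISA. EC50 is the concentration reducing viral product accumulation 50% versus no-drug controls.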

| SMILES | CC50 at 3 days [1] [µM] | EC50 [2] [µM] |
| --- | --- | --- |
| CCOC(=O)CC1(S(=O)(=O)N[C@H]2CC3=C(c4ccn(C(F)F)n4)[C@H](c4ccc(F)cc4Cl)N=C(c4nccs4)N3C2)CC1 [Example 369] | > 25 | < 0.1 |
| O=S(=O)(NC(c1ccccn1)c1ccccn1)N[C@H]1CC2=C(c3ccn(C(F)F)n3)[C@H](c3ccc(F)cc3Cl)N=C(c3nccs3)N2C1 [Example 361] | > 25 | < 0.1 |
| O=S(=O)(N[C@H]1CC2=C(c3ccn(C(F)F)n3)[C@H](c3ccc(F)cc3Cl)N=C(c3nccs3)N2C1)N1CCC[C@@H]1C(F)(F)F [Example 287] | 10 to 25 | < 0.1 |
| O=S(=O)(N[C@H]1CC2=C(c3ccn(C(F)F)n3)[C@H](c3ccc(F)cc3Cl)N=C(c3nccs3)N2C1)c1cccc(-c2cccnc2)n1 [Example 378] | > 25 | < 0.1 |
| O=S(=O)(N[C@H]1CC2=C(c3ccn(C(F)F)n3)[C@H](c3ccc(F)cc3Cl)N=C(c3nccs3)N2C1)c1ccc([C@H]2CC[C@](O)(c3ccccn3)CC2)cc1 [Example 385] | > 25 | < 0.1 |
| O=S(=O)(N[C@H]1CC2=C(c3ccn(C(F)F)n3)[C@H](c3ccc(F)cc3Cl)N=C(c3nccs3)N2C1)N1CCC(F)(F)C1 [Example 276] | < 10 | < 0.1 |
| O=S(=O)(N[C@H]1CC2=C(c3ccn(C(F)F)n3)[C@H](c3ccc(F)cc3Cl)N=C(c3nccs3)N2C1)c1ccc(Br)cn1 [Example 368] | > 25 | < 0.1 |
| COCCNS(=O)(=O)N[C@H]1CC2=C(c3ccn(C(F)F)n3)[C@H](c3ccc(F)cc3Cl)N=C(c3nccs3)N2C1 [Example 80] | > 25 | < 0.1 |
| O=S(=O)(N[C@H]1CC2=C(c3ccn(C(F)F)n3)[C@H](c3ccc(F)cc3Cl)N=C(c3nccs3)N2C1)c1ccc(Br)cc1 [Example 389] | > 25 | < 0.1 |
| O=S(=O)(N[C@H]1CC2=C(c3ccn(C(F)F)n3)[C@H](c3ccc(F)cc3Cl)N=C(c3nccs3)N2C1)[C@H]1C[C@H](O)C1 [Example 370] | > 25 | < 0.1 |
| O=S(=O)(N[C@H]1CC2=C(c3ccn(C(F)F)n3)[C@H](c3ccc(F)cc3Cl)N=C(c3nccs3)N2C1)N1CCC(O)(C(O)CO)CC1 (some centres unmarked) [Example 96] | > 25 | < 0.1 |
| O=S(=O)(N[C@H]1CC2=C(c3ccn(C(F)F)n3)[C@H](c3ccc(F)cc3Cl)N=C(c3nccs3)N2C1)N1CCC(O)(c2nccs2)CC1 [Example 260] | > 25 | < 0.1 |
| CS(=O)(=O)CS(=O)(=O)N[C@H]1CC2=C(c3ccn(C(F)F)n3)[C@H](c3ccc(F)cc3Cl)N=C(c3nccs3)N2C1 [Example 335] | > 25 | < 0.1 |
| O=S(=O)(N[C@H]1CC2=C(c3ccn(C(F)F)n3)[C@H](c3ccc(F)cc3Cl)N=C(c3nccs3)N2C1)c1cnn(S(=O)(=O)c2cn[nH]c2)c1 [Example 21] | 10 to 25 | < 0.1 |
| O=S(=O)(N[C@H]1CC2=C(c3ccn(C(F)F)n3)[C@H](c3ccc(F)cc3Cl)N=C(c3nccs3)N2C1)c1ccc(S(=O)(=O)C(F)F)cc1 [Example 340] | > 25 | < 0.1 |
| O=Cc1ccc(S(=O)(=O)N[C@H]2CC3=C(c4ccn(C(F)F)n4)[C@H](c4ccc(F)cc4Cl)N=C(c4nccs4)N3C2)cc1 [Example 332] | > 25 | < 0.1 |
| O=S(=O)(CCCCO)N[C@H]1CC2=C(c3ccn(C(F)F)n3)[C@H](c3ccc(F)cc3Cl)N=C(c3nccs3)N2C1 [Example 280] | > 25 | < 0.1 |
| O=C1NC[C@@H](CNC(=O)c2cccc(S(=O)(=O)N[C@H]3CC4=C(c5ccn(C(F)F)n5)[C@H](c5ccc(F)cc5Cl)N=C(c5nccs5)N4C3)c2)O1 [Example 420] | > 25 | < 0.1 |
| O=S(=O)(N[C@H]1CC2=C(c3ccn(C(F)F)n3)[C@H](c3ccc(F)cc3Cl)N=C(c3nccs3)N2C1)[C@H]1CC[C@@H](O)CC1 [Example 99] | > 25 | < 0.1 |
| O=S(=O)(NCCO)N[C@H]1CC2=C(c3ccn(C(F)F)n3)[C@H](c3ccc(F)cc3Cl)N=C(c3nccs3)N2C1 [Example 78] | > 25 | < 0.1 |
| Cn1ccc(C2(O)CCN(S(=O)(=O)N[C@H]3CC4=C(c5ccn(C(F)F)n5)[C@H](c5ccc(F)cc5Cl)N=C(c5nccs5)N4C3)CC2)n1 [Example 304] | > 25 | < 0.1 |
| CC(C)(O)[C@@H]1CCCN1S(=O)(=O)N[C@H]1CC2=C(c3ccn(C(F)F)n3)[C@H](c3ccc(F)cc3Cl)N=C(c3nccs3)N2C1 [Example 289] | > 25 | < 0.1 |
